The test system of data set [1] is rabbit mesenteric arteries. Put plainly: Inhibition of KCl-induced contraction of surface-perfused, extirpated mesenteric arteries. The format is cell-based, White bastard rabbits. The method, then:
(1) Preparation of surface-perfused, extirpated mesenteric arteries
White bastard rabbits (male, 2-3 kg) were incised along the abdominal median line. […] The strips were ligated with silk yarn at both ends, and the lower end was connected to a stationary rod, whereas the upper end was connected to a […] transducer (SB-1T, product of Nippon Koden Co., Ltd.). Thus, the strips were suspended under an initial tension of 1.5 g. The preparation was kept at 37°±1° C. by means of peristaltic pump (Harvard 1210), while a gas (95% O2 and 5% CO2) was introduced therein. The surface of the preparation was perfused with a Krebs-Henseleit solution whose composition in g/l was NaCl: 6.92, KCl: 0.35, MgSO4.7H2 O: 0.29, CaCl2 : 0.28, KH2 PO4 : 0.16, NaHCO3 : 2.1 and glucose: 2.0 at a flow rate of 10 ml/min. After the preparation was stabilized for 1 to 2 hours, it was used for the experiment. Potassium chloride as a blood vessel-contracting substance was injected into flow of the perfusion solution through a cannula provided just before the preparation so that potassium chloride can have the ultimate concentration of 20 mM. The resulting contraction reaction was recorded on a polygraph (RM-45, product of Nippon Koden Co. Ltd.) in equal scales through the tension transducer. KS-619-1 was dissolved in ethanol to a concentration of 20 mg/ml, and the solution was properly diluted with a nutrient liquor and then continuously perfused from 10 minutes before the application of the contracting substance till the end of contraction reaction.
^(a) Inhibition percentage of contraction was calculated according to […]

Data set [2] can be described thus: Acute toxicity (LD50) in mice. As to conditions: mouse, in vivo. The method, then:
The acute toxicity (LD50) of KS-619-1 in mice is more than 300 mg/kg·p.o. and more than 100 mg/kg·i.p.

Data set [3] can be described thus: Solubility. It is filed as physicochemical.

By inhibition is commonly meant the relative decrease from the control value, in per cent. The LD50 is the dose expected to kill half of the subjects tested. Low readings indicate greater toxicity, high ones lower toxicity. Consider `CC(=O)Cc1cc2c(c(O)c1C(=O)O)-c1cc3c(c(O)c1CC2)C(=O)c1c(O)cc(O)cc1C3=O` [KS-619-1], for which the inhibition at 0.3 µg/mL in data set [1] (Oryctolagus cuniculus, KS-619-1 0.3 μg/ml (ultimate concentration), contracting substance potassium chloride 20 mM, read-out: Inhibition percentage of contraction) turned out to be 33%. In addition, the inhibition at 1 µg/mL in data set [1] (Oryctolagus cuniculus, KS-619-1 1.0 μg/ml (ultimate concentration), contracting substance potassium chloride 20 mM, read-out: Inhibition percentage of contraction) was determined as 67%. In addition, the “inhibition of contraction of rabbit mesenteric arteries (in words)” value in data set [1] (potassium chloride 20 mM, 0.3 and 1.0 μg/ml) is “inhibited the contraction of rabbit mesenteric arteries, depending on the concentration”. The 50% lethal dose (LD50) in data set [2] (ip) is > 100 mg/kg; in data set [2] (po), > 300 mg/kg. Besides, the Solubility result in data set [3] (in acetic acid) is recorded as “readily soluble”; in data set [3] (in chloroform and water), “sparingly soluble”; in data set [3] (in methanol, ethanol, acetone, ethyl acetate and butanol), “soluble”.

These data come from patent US4962125A, “Novel substance KS-619-1, preparation process and pharmaceutical composition” (Kyowa Hakko Kogyo, Co., Ltd., priority 1984, dated 1990).
